Consider seven compounds from publication PMC6911004, “Fragment-based screening identifies molecules targeting the substrate-binding ankyrin repeat domains of tankyrase” (Scientific Reports, 2019).

Where a SMILES comes first, the peptide text is derived from it. [ ]: non-standard residue; d: D form.

What all share (type): binding
Assay [1] concerns the target T1, TNKS2 ARC4 (Homo sapiens, UniProt Q9H2K2).
T1 construct: The cell was filled with TNKS2 ARC4 (488–649); His6-GST; made in house; host or cells: E. coli
T1 sequence (Q9H2K2 488-649): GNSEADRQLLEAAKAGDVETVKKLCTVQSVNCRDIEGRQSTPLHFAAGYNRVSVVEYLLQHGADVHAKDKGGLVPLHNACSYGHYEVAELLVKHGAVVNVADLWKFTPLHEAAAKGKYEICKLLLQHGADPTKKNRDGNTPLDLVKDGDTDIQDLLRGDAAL
Put plainly: T2 relaxation-edited ligand-observed NMR assay. As to conditions: for binding to TNKS2 ARC4 by ligand-observed NMR, in words: DSF hit validation. On the procedure:
We next sought close structural analogues of hit fragments 3 and 5 to gain early insights into structure-activity relationships (SAR) and binding modes of hit fragments. We initially tested the analogues using both relaxation-edited and waterLOGSY NMR assays against TNKS2 ARC4 (Table 1), followed by protein-observed NMR if binding was detected in both ligand-observed NMR experiments.
(§1) Fragments were dispensed in duplicate into a 384-well plate (250 nL, 100 mM stock in DMSO). Wells were backfilled with DMSO (2.25 μL). Tankyrase ARC protein (47.5 μL in 25 mM HEPES, pH 7.5, 100 mM NaCl, 2 mM TCEP, 10% D2O; 20 μM final protein concentration in the assay) was added to the ‘protein’ samples; buffer only (47.5 μL) was added to the ‘compound-only’ samples. Solutions were transferred to 1.7 mm NMR tubes using a Gilson liquid handling system. ^1H NMR spectra were recorded, with the DMSO and water signals dampened. A relaxation spin filter was applied at 400 ms[65]. Data were processed using Bruker Topspin 3.14. Lines were broadened with LB = 3.0, and the baseline was corrected between 6.0–10.0 ppm. The average integral for all peaks between 6.0–10.0 ppm was calculated, and the difference between compound-only and compound-plus-protein samples was compared. A reduction in signal integrals of ≥15% was classified as a hit. For competitive experiments, 3BP2 16-mer peptide (100 μM) was added, and the spectra were recorded and processed as above. The variability in signal reduction in the relaxation-edited experiment was previously determined as approximately ± 10% (Liu et al., unpublished observations).

Assay [2] addresses T1, TNKS2 ARC4. Kind of assay: Fluorescence polarisation (FP) competition assay with Cy5-labelled TBM peptide probe. Particulars: for FP competition, result in words: peptide titrated up to 1 mM; for IC50: 5 nM Cy5-RSPPDGQS probe, 5 µM TNKS2 ARC4. The source says:
Given the anticipated impairment of cell permeability by the N-terminal TBM arginine, we investigated whether the guanidine group could be substituted. To prioritise synthesis efforts, we followed an in-silico docking approach, exploring the importance of the positive charge and hydrogen bonding interactions, linker lengths/flexibility and side chain geometry (see Supplementary Materials and Methods for details). From commercially available side chain alternatives, we identified five potential candidates for R replacements: 1H-imidazole-5-pentanoic acid, 1H-imidazole-1-pentanoic acid, 7-aminoheptanoic acid, D-arginine and L-citrulline (Supplementary Fig. 1). We next synthesised 3BP2 TBM octapeptides, incorporating the five arginine substituents at position 1, followed by fluorescence polarisation (FP) assays to assess competition of the peptides with a Cy5-labelled TBM peptide probe (Supplementary Fig. 1). We used a 16-mer TBM peptide (LPHLQRSPPDGQSFRSW, W introduced to measure A280) derived from the model substrate 3BP2, a signalling adapter protein[4], as a positive control for a competitor, and a corresponding non-binding TBM peptide bearing a glycine-to-arginine substitution at position 6[4] as a negative control. […]
Fluorescence polarisation assay
Unlabelled arginine substituent peptides were titrated up to 1 mM in the presence of 5 nM of a labelled peptide probe (Cy5-RSPPDGQS, JPT Peptide Technologies) and 5 µM TNKS2 ARC4. 3BP2 16-mer peptide was used as a positive control, and the same peptide with the glycine at position 6 mutated to arginine (G6R) was used as a negative control. Plus F ProxiPlates (PerkinElmer) were used with a 2103 Envision Multilabel plate reader (PerkinElmer), fitted with 620 nm (excitation) and 688 nm (emission) filters. Filter bandwidths were 10 nm. A Nanodrop 2000 was used for measuring protein and probe concentrations by UV absorption. TNKS2 ARC4 protein was thawed from -80 ° C, and centrifuged at 13,000 […]
Two independent experiments were performed in technical duplicate. A 2´ stock solution containing TNKS2 ARC4 protein (10 µM) and fluorescently tagged probe (10 nM) in assay buffer (25 mM HEPES-NaOH pH 7.5, 100 mM NaCl, 1 mM TCEP, 0.01% CHAPS) was prepared. A 2-fold dilution series of untagged peptide in assay buffer was made (0 – 2 mM).
Protein and peptide stock solutions were mixed 1:1. Blank samples contained assay buffer only. The plate was sealed, centrifuged for 1 min at 1000 ´ g, and then incubated in the dark for 30 min before reading. Readings were taken with 50 flashes per well, and measured in millipolarisation (mP) units. Data were exported to Microsoft Excel, and analysed in GraphPad Prism 6.0. The means of technical duplicate values were calculated for both experiments, and FP values were plotted against unlabelled peptide concentration. Curves were normalised using the overall mean maximum and minimum FP values of the control 3BP2 TBM peptide. Curves were fitted using a non-linear regression, log(inhibitor) vs. response – variable slope (four parameters) model.
Multiple sequence alignments and amino acid identity mapping
Sequences of tankyrase ARCs were aligned using ClustalX (version 2.0) 4. […]
Supplementary Figure 1. Binding of TBM peptides containing arginine substituents to TNKS2 ARC4, measured in a fluorescence polarisation (FP) competition assay. Data points are means of technical duplicates from two independent experiments. […]

The target in assay [3] is T2, TNKS2 ARC5 (Homo sapiens, UniProt Q9H2K2).
T2 construct: followed by TNKS2 ARC5 (1 μL, 100 μM stock); His6-GST; made in house; host or cells: E. coli
Kind of assay: T2 relaxation-edited ligand-observed NMR assay. As to conditions: DSF hit validation; for binding to TNKS2 ARC5 by ligand-observed NMR, in words: relaxation-edited and waterLOGSY; for competition with the 3BP2 TBM peptide by relaxation-edited NMR: ARC used for competition not given.
Text: (§2) 39 hits from the DSF screen were suitable for follow-up by ligand-observed NMR methods. We re-purchased fragments and performed T2 relaxation-edited (CPMG-edited) and waterLOGSY experiments for each fragment with TNKS2 ARC5. We explored saturation transfer difference (STD) NMR, also using TNKS2 ARC5, but the assay was not sensitive enough to produce a reliable binding signal, likely due to the relatively small size of a single ARC protein (data not shown). High ligand concentrations were required to achieve sufficient signal, which in turn could lead to false-positive hits due to non-specific binding.
Using the relaxation-edited assay, we tested each fragment in three independent measurements (Fig. 2C), unless we obtained two negative results (non-binding) in the first two experiments. […] As a negative NOE for the compound-only sample could indicate aggregation, we flagged these compounds as potentially problematic. We identified 14 fragments that bound to TNKS2 ARC5 by both relaxation-edited and waterLOGSY methods (0.78% hit rate). We next tested whether binding of these fragments occurred competitively with the 3BP2 TBM peptide, and also if they bound to TNKS2 ARC4, as competition with peptide binders at various different ARCs will be a prerequisite for an efficient substrate binding antagonist. Three fragments (1, 2, 3) bound to both TNKS2 ARC4 and ARC5 and were competitive with the TBM peptide (0.16% hit rate) (Fig. 2E). Three further fragments also bound to both ARCs, but were not TBM competitive by NMR.
as §1

The target of assay [4] is T2, TNKS2 ARC5. Put plainly: WaterLOGSY NMR assay.
Text: as §2
Using the relaxation-edited assay, we tested each fragment in three independent measurements (Fig. 2C), unless we obtained two negative results (non-binding) in the first two experiments. […] As a negative NOE for the compound-only sample could indicate aggregation, we flagged these compounds as potentially problematic. We identified 14 fragments that bound to TNKS2 ARC5 by both relaxation-edited and waterLOGSY methods (0.78% hit rate). […]
Fragments were dispensed in duplicate into a 384-well plate (250 nL, 100 mM stock in DMSO). […] Solutions were transferred to 1.7 mm NMR tubes using a Gilson liquid handling system. ^1H NMR spectra were recorded, with the DMSO signal dampened. […]

As usually defined, the IC50 is the point on the concentration scale where inhibition reaches its midpoint. Read a high IC50 as weaker potency in that assay.

T2 sequence (Q9H2K2 641-800): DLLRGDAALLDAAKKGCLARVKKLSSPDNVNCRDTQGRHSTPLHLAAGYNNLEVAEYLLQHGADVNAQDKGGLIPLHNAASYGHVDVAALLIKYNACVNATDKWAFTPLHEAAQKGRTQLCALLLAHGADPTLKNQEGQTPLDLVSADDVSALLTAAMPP

For the compound `NC(=O)Cc1coc2ccc3ccccc3c12` [compound 4], at TNKS2 ARC4 [1] (3BP2 16-mer peptide 100 μM), the “T2 relaxation-edited: competition with 3BP2 TBM peptide” value is listed as “competitive”. With 7-aminoheptanoic acid, on TNKS2 ARC4 [2], the “FP competition, result in words” value is listed as “poor competition”. Regarding `O=S(=O)(Nc1cccc(O)c1)c1ccc(Cl)cc1` [compound 1], on TNKS2 ARC5 [3], the “binding to TNKS2 ARC5 by ligand-observed NMR, in words” value is listed as “bound” and the “competition with the 3BP2 TBM peptide by relaxation-edited NMR” value is “competitive”. Also, the waterLOGSY entry at TNKS2 ARC5 [4] was “negative NOE signal”. Besides, at TNKS2 ARC4 [1], the “binding to TNKS2 ARC4 by ligand-observed NMR, in words” value is “bound”. With citrulline, on TNKS2 ARC4 [2], the “FP competition, result in words” value is listed as “poor competition”.

As for `COc1ccc2c(OC(C)=O)coc2c1` [compound 2], at TNKS2 ARC5 [3], the “binding to TNKS2 ARC5 by ligand-observed NMR, in words” value is listed as “bound” and the “competition with the 3BP2 TBM peptide by relaxation-edited NMR” value was “competitive”. Further, the “binding to TNKS2 ARC4 by ligand-observed NMR, in words” value on TNKS2 ARC4 [1] is “bound”.

`N=C(N)NCCC[C@@H](N)C(=O)N[C@@H](CO)C(=O)N1CCC[C@H]1C(=O)N1CCC[C@H]1C(=O)N[C@@H](CC(=O)O)C(=O)NCC(=O)N[C@@H](CCC(N)=O)C(=O)N[C@@H](CO)C(=O)O` [D-arginine] (H-[dR]SPPDGQS-OH): on TNKS2 ARC4 [2], the IC50 came out at 175 µM. In the case of `N=C(N)NCCC[C@H](N)C(=O)N[C@@H](CO)C(=O)N1CCC[C@H]1C(=O)N1CCC[C@H]1C(=O)N[C@@H](CC(=O)O)C(=O)NCC(=O)N[C@@H](CCC(N)=O)C(=O)N[C@@H](CO)C(=O)O` [8-mer RSPPDGQS TBM peptide, RSPPDGQS, reference compound] (H-RSPPDGQS-OH), on TNKS2 ARC4 [2], the IC50 came to 34 µM.
